Among the data in patent US20250257086A1, “EGFR DEGRADATION AGENT” (Beijing Tide Pharmaceutical Co., Ltd., priority 2022, published 2025) are GI50 values, retold here.

Ba/F3 (EGFR^L858R/T790M/C797S) cells, sequence (P00533 whole entry T790M/C797S/L858R): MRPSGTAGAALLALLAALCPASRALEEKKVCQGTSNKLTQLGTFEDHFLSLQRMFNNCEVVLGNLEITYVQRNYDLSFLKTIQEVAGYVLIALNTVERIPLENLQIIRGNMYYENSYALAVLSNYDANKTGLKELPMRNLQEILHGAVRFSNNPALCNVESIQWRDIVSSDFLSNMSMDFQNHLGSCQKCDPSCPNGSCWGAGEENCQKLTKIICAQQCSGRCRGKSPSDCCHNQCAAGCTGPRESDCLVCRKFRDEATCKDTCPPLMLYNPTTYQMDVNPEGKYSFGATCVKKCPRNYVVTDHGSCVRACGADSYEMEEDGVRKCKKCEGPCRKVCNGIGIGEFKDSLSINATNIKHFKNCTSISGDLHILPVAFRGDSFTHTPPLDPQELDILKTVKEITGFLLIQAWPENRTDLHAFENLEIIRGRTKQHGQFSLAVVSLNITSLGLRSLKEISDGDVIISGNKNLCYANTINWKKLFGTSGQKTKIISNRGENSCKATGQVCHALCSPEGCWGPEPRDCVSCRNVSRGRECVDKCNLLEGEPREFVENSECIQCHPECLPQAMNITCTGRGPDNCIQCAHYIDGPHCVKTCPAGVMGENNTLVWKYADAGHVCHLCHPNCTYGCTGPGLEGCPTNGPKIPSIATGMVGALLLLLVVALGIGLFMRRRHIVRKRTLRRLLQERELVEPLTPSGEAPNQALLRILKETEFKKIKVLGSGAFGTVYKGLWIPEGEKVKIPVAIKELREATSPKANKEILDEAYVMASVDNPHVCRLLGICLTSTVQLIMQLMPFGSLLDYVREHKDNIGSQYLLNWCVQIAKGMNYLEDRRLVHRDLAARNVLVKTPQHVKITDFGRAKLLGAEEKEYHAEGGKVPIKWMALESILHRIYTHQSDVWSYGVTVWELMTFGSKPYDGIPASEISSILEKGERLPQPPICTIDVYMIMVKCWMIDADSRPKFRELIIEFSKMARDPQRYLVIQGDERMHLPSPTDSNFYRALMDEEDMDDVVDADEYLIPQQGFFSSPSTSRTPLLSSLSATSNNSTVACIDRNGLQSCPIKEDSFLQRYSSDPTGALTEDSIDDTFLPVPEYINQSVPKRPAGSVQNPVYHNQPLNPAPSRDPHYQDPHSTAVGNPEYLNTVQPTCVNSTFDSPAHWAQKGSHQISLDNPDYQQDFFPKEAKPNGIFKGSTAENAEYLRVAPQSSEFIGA

The target of this assay is Ba/F3 (EGFR^L858R/T790M/C797S) cells (Homo sapiens, UniProt P00533, T790M/C797S/L858R, cells depend on it). As to the kind of experiment: Antiproliferative activity on Ba/F3 (EGFR L858R/T790M/C797S) cells (CTG). The following applies: 72h incubation, CTG luminescence, read-out: IC50 (nM), antiproliferative activity. It is filed as cell-based. On the procedure:
30 nL of the compound dilution was added to a 384-well plate by Echo (Labcyte, Echo550).
The percent inhibition rate (% inhibition) was calculated by the following formula
[formula] • LUMcmpd: Luminescence value of assay compound. • LUMpositive: Average LUM value of positive drug with a concentration of 10 μM. • LUMvehicle: Average LUM value of negative control group without drug treatment.
The nonlinear regression curve (dose response-variable slope) between the value of inhibition rate (%) and the logarithm of compound concentration was fitted with graphpad prism 8.0, the effect dose curve of compound was drawn, and the IC50 value was calculated.
Y=Bottom+(Top−Bottom)/(1+10^((Log IC50−X)*HillSlope)) • X-axis: logarithm of compound concentration; Y axis: inhibition rate (% inhibition).
As for `C=CC(=O)Nc1cc(Nc2ncc(Br)c(Nc3ccccc3P(C)(C)=O)n2)ccc1N1CCC(N2CCN(CCCCC#Cc3cccc4c3CN(C3CCC(=O)NC3=O)C4=O)CC2)CC1` (stereo not shown) [Compound D550, N-(5-((5-bromo-4-((2-(dimethylphosphoryl)phenyl)amino)pyrimidin-2-yl)amino)-2-(4-(4-(6-(2-(2,6-dioxopiperidin-3-yl)-1-oxoisoindolin-4-yl)hex-5-yn-1-yl)piperazin-1-yl)piperidin-1-yl)phenyl)acrylamide], the GI50 is 14.4 nM.
As for `C=C(F)C(=O)Nc1cc(Nc2ncc(Cl)c(Nc3ccc4c(c3P(C)(C)=O)OCCO4)n2)c(OC)cc1N1CCC(N2CCN(CCCC#Cc3cccc4c3CN(C3CCC(=O)NC3=O)C4=O)CC2)CC1` (stereo not shown) [Compound D682], the GI50 is 14.6 nM.
`COc1cc(N2CCC(N3CCN(CCCC#Cc4cccc5c4CN(C4CCC(=O)NC4=O)C5=O)CC3)CC2)c(NC(=O)/C=C/C(F)(F)F)cc1Nc1ncc(Cl)c(Nc2ccc3c(c2P(C)(C)=O)OCCO3)n1` (stereo not shown) [Compound D684]: the GI50 was found to be 24.1 nM.
Turning to `COc1cc(N2CCC(N3CCN(CCCC#Cc4cccc5c4CN(C4CCC(=O)NC4=O)C5=O)CC3)CC2)c(NC(=O)/C=C/C(F)(F)F)cc1Nc1ncc(Br)c(Nc2ccccc2P(C)(C)=O)n1` (stereo not shown) [Compound D603, (E)-N-(5-((5-bromo-4-((2-(dimethylphosphoryl)phenyl)amino)pyrimidin-2-yl)amino)-2-(4-(4-(5-(2-(2,6-dioxopiperidin-3-yl)-1-oxoisoindolin-4-yl)pent-4-yn-1-yl)piperazin-1-yl)piperidin-1-yl)-4-methoxyphenyl)-4,4,4-trifluorobut-2-enamide], the GI50 is 37.1 nM.
As for `COc1cc(N2CCC(N3CCN(CCCC#Cc4cccc5c4CN(C4CCC(=O)NC4=O)C5=O)CC3)CC2)c(NC(=O)C=C(C)C)cc1Nc1ncc(Cl)c(Nc2ccccc2P(C)(C)=O)n1` (stereo not shown) [Compound D633, N-(5-((5-chloro-4-((2-(dimethylphosphoryl)phenyl)amino)pyrimidin-2-yl)amino)-2-(4-(4-(5-(2-(2,6-dioxopiperidin-3-yl)-1-oxoisoindolin-4-yl)pent-4-yn-1-yl)piperazin-1-yl)piperidin-1-yl)-4-methoxyphenyl)-3-methylbut-2-enamide], the GI50 stood at 56.5 nM.
As for `CCCC#CC(=O)Nc1cc(Nc2ncc(Br)c(Nc3ccccc3P(C)(C)=O)n2)c(OCC(F)(F)F)cc1N1CCC(N2CCN(CCCC#Cc3cccc4c3CN(C3CCC(=O)NC3=O)C4=O)CC2)CC1` (stereo not shown) [Compound D856, N-(5-((5-bromo-4-((2-(dimethylphosphoryl)phenyl)amino)pyrimidin-2-yl)amino)-2-(4-(4-(5-(2-(2,6-dioxopiperidin-3-yl)-1-oxoisoindolin-4-yl)pent-4-yn-1-yl)piperazin-1-yl)piperidin-1-yl)-4-(2,2,2-trifluoroethoxy)phenyl)hex-2-ynamide], the figure is 27.4 nM; as for `CCCC#CC(=O)Nc1cc(Nc2ncc(C(F)(F)F)c(Nc3ccccc3P(C)(C)=O)n2)c(OC)cc1N1CCC(N2CCN(CCCC#Cc3cccc4c3CN(C3CCC(=O)NC3=O)C4=O)CC2)CC1` (stereo not shown) [Compound D835, N-(5-((4-((2-(dimethylphosphoryl)phenyl)amino)-5-(trifluoromethyl)pyrimidin-2-yl)amino)-2-(4-(4-(5-(2-(2,6-dioxopiperidin-3-yl)-1-oxoisoindolin-4-yl)pent-4-yn-1-yl)piperazin-1-yl)piperidin-1-yl)-4-methoxyphenyl)hex-2-ynamide], 11.9 nM.
Turning to `COc1cc(N2CCC(N3CCN(CCCC#Cc4ccc5c(c4)CN(C4CCC(=O)NC4=O)C5=O)CC3)CC2)c(NC(=O)/C=C/C(F)(F)F)cc1Nc1ncc(Cl)c(Nc2ccccc2P(C)(C)=O)n1` (stereo not shown) [Compound D622, N-(5-((5-chloro-4-((2-(dimethylphosphoryl)phenyl)amino)pyrimidin-2-yl)amino)-2-(4-(4-(5-(2-(2,6-dioxopiperidin-3-yl)-1-oxoisoindolin-5-yl)pent-4-yn-1-yl)piperazin-1-yl)piperidin-1-yl)-4-methoxyphenyl)-4,4,4-trifluorobut-2-enamide], the GI50 is 258 nM.
For the compound `COc1cc(N2CCC(N3CCN(CCCC#Cc4cccc5c4CN(C4CCC(=O)NC4=O)C5=O)CC3)CC2)c(C)cc1Nc1ncc(Br)c(Nc2ccc3nccnc3c2N(C)S(C)(=O)=O)n1` (stereo not shown) [Compound D932], the GI50 turned out to be 36.7 nM.
As for `C=CC(=O)Nc1cc(Nc2ncc(Br)c(Nc3ccccc3P(C)(C)=O)n2)ccc1N1CCC(N2CCN(CCCC#Cc3cccc4c3CN(C3CCC(=O)NC3=O)C4=O)CC2)CC1` (stereo not shown) [Compound D549, N-(5-((5-bromo-4-((2-(dimethylphosphoryl)phenyl)amino)pyrimidin-2-yl)amino)-2-(4-(4-(5-(2-(2,6-dioxopiperidin-3-yl)-1-oxoisoindolin-4-yl)pent-4-yn-1-yl)piperazin-1-yl)piperidin-1-yl)phenyl)acrylamide], the figure is 7.41 nM; as for `C=CC(=O)Nc1cc(Nc2ncc(Cl)c(Nc3ccccc3P(C)(C)=O)n2)c(OC)cc1N1CCC(N2CCN(CCCC#Cc3cccc4c3CN(C3CCC(=O)NC3=O)C4=O)CC2)CC1` (stereo not shown) [Compound D481, N-(5-((5-chloro-4-((2-(dimethylphosphoryl)phenyl)amino)pyrimidin-2-yl)amino)-2-(4-(4-(5-(2-(2,6-dioxopiperidin-3-yl)-1-oxoisoindolin-4-yl)pent-4-yn-1-yl)piperazin-1-yl)piperidin-1-yl)-4-methoxyphenyl)acrylamide], 68.7 nM.
`COc1cc(N2CCC(N3CCN(CCCC#Cc4cccc5c4CN(C4CCC(=O)NC4=O)C5=O)CC3)CC2)c(NC(=O)C#CCO)cc1Nc1ncc(Cl)c(Nc2ccccc2P(C)(C)=O)n1` (stereo not shown) [Compound D628, N-(5-((5-chloro-4-((2-(dimethylphosphoryl)phenyl)amino)pyrimidin-2-yl)amino)-2-(4-(4-(5-(2-(2,6-dioxopiperidin-3-yl)-1-oxoisoindolin-4-yl)pent-4-yn-1-yl)piperazin-1-yl)piperidin-1-yl)-4-methoxyphenyl)-4-hydroxybut-2-ynamide]: the GI50 was 325 nM.
`CP(C)(=O)c1ccccc1Nc1nc(Nc2ccc(N3CCC(N4CCN(CCCC#Cc5cccc6c5CN(C5CCC(=O)NC5=O)C6=O)CC4)CC3)c(NC(=O)/C=C/C(F)(F)F)c2)ncc1Cl` (stereo not shown) [Compound D667, (E)-N-(5-((5-chloro-4-((2-(dimethylphosphoryl)phenyl)amino)pyrimidin-2-yl)amino)-2-(4-(4-(5-(2-(2,6-dioxopiperidin-3-yl)-1-oxoisoindolin-4-yl)pent-4-yn-1-yl)piperazin-1-yl)piperidin-1-yl)phenyl)-4,4,4-trifluorobut-2-enamide]: the GI50 stood at 18.1 nM.
With `CC#CC(=O)Nc1cc(Nc2ncc(C(F)(F)F)c(Nc3ccccc3P(C)(C)=O)n2)c(OC)cc1N1CCC(N2CCN(CCCC#Cc3cccc4c3CN(C3CCC(=O)NC3=O)C4=O)CC2)CC1` (stereo not shown) [Compound D748, N-(5-((4-((2-(dimethylphosphoryl)phenyl)amino)-5-(trifluoromethyl)pyrimidin-2-yl)amino)-2-(4-(4-(5-(2-(2,6-dioxopiperidin-3-yl)-1-oxoisoindolin-4-yl)pent-4-yn-1-yl)piperazin-1-yl)piperidin-1-yl)-4-methoxyphenyl)but-2-ynamide], the GI50 was found to be 7.76 nM.
As for `CC#CC(=O)Nc1cc(Nc2ncc(Cl)c(Nc3ccccc3P(C)(C)=O)n2)c(OC)cc1N1CCC(N2CCN(CCCCC#Cc3ccc4c(c3)CN(C3CCC(=O)NC3=O)C4=O)CC2)CC1` (stereo not shown) [Compound D602, N-(5-((5-chloro-4-((2-(dimethylphosphoryl)phenyl)amino)pyrimidin-2-yl)amino)-2-(4-(4-(6-(2-(2,6-dioxopiperidin-3-yl)-1-oxoisoindolin-5-yl)hex-5-yn-1-yl)piperazin-1-yl)piperidin-1-yl)-4-methoxyphenyl)but-2-ynamide], the GI50 amounted to 57.3 nM.
As to `C=C(Cl)C(=O)Nc1cc(Nc2ncc(Cl)c(Nc3ccccc3P(C)(C)=O)n2)c(OC)cc1N1CCC(N2CCN(CCCC#Cc3cccc4c3CN(C3CCC(=O)NC3=O)C4=O)CC2)CC1` (stereo not shown) [Compound D597, 2-chloro-N-(5-((5-chloro-4-((2-(dimethylphosphoryl)phenyl)amino)pyrimidin-2-yl)amino)-2-(4-(4-(5-(2-(2,6-dioxopiperidin-3-yl)-1-oxoisoindolin-4-yl)pent-4-yn-1-yl)piperazin-1-yl)piperidin-1-yl)-4-methoxyphenyl)acrylamide], the GI50 turned out to be 460 nM.
Turning to `C=C(F)C(=O)Nc1cc(Nc2ncc(Cl)c(Nc3ccc4nccnc4c3P(C)(C)=O)n2)c(OC)cc1N1CCC(N2CCN(CCCC#Cc3cccc4c3CN(C3CCC(=O)NC3=O)C4=O)CC2)CC1` (stereo not shown) [Compound D671, N-(5-((5-chloro-4-((5-(dimethylphosphoryl)quinoxalin-6-yl)amino)pyrimidin-2-yl)amino)-2-(4-(4-(5-(2-(2,6-dioxopiperidin-3-yl)-1-oxoisoindolin-4-yl)pent-4-yn-1-yl)piperazin-1-yl)piperidin-1-yl)-4-methoxyphenyl)-2-fluoroacrylamide], the GI50 was 14.5 nM.
With `CC#CC(=O)Nc1cc(Nc2ncc(Cl)c(Nc3ccccc3P(C)(C)=O)n2)c(OC)cc1N1CCC(N2CCN(C)CC2)CC1` [Comparative compound L521, reference compound], the GI50 was determined as 3050 nM.
Turning to `C=C(F)C(=O)Nc1cc(Nc2ncc(Br)c(Nc3ccc4nccnc4c3N(C)S(C)(=O)=O)n2)c(OC)cc1N1CCC(N2CCN(CCCC#Cc3cccc4c3CN(C3CCC(=O)NC3=O)C4=O)CC2)CC1` (stereo not shown) [Compound D934], the GI50 amounted to 31.9 nM.
